Laboratory results as given in paper PMC9501899 (Journal of the American Chemical Society, 2022).

Tests used:
[1] = system: Rab10-pThr73; assay: Rab10 dephosphorylation in G2019S LRRK2 MEFs by Western blotting; type: cell-based, mouse
Experimental: (§1) These PROTACs were then biologically evaluated in mouse embryonic fibroblasts (MEFs) by Western blotting. Briefly, MEFs were treated with compounds at 33 nM and 1 μM for 4 h (Figure 2) and 24 h (Figure S2) separately, and the intracellular level of LRRK2, phosphorylated LRRK2 at Ser935, and phosphorylated Rab10 (pRab10) at Thr73 was determined. Rab10[5],[49] is one of the bona fide substrates of LRRK2, whose phosphorylation status is directly affected by the LRRK2 kinase activity and protein level. Phosphorylation of LRRK2 at Ser935 is a well-studied biomarker site used to assess the efficacy of type 1 LRRK2 inhibitors.[30]
(§2) Primary MEFs were generated as described in a previous study.[80] Briefly, the uterine horn was collected from adult female mice at day E12.5 and transferred to a 10 cm tissue culture dish containing cold PBS. Two forceps were used to tear the yolk sacs to isolate each embryo. Forceps were cleaned thoroughly with 70% ethanol between each embryo isolation. The embryos were culled, and a tissue piece was collected in a polymerase chain reaction (PCR) tube for genotyping. The red tissue of the embryo was removed, and the remainder was minced with a scalpel blade and incubated with a 7.5 mL trypsin–ethylenediaminetetraacetic acid (EDTA) solution for 10 min in a 37 °C, 5% CO2 tissue culture incubator. The dish was removed from the incubator and checked under a light microscope for single cells. Complete media (7.5 mL) was added to the trypsinized cells, and the cell suspension was transferred to a 15 mL Falcon tube and centrifuged at 1200 rpm for 5 min at room temperature. The trypsin was aspirated, the cell pellet was resuspended in a 5 mL fresh complete media, and the cell suspension was plated in a 60 mm tissue culture dish and incubated in a 37 °C, 5% CO2 tissue culture incubator. The MEFs at this stage were considered as passage 0 and were passaged and expanded for experimental use once the genotype was confirmed by allelic sequencing and immunoblotting. MEFs were cultured in Dulbecco’s modified Eagle’s medium (DMEM) containing 10% (v/v) fetal bovine serum (FBS), 2 mM L-glutamine, 100 U/mL penicillin, and 100 μg/mL streptomycin supplemented with 1× nonessential amino acids and 1 mM sodium pyruvate.
(§3) Culturing and passaging of adherent cell lines were carried out using an aseptic technique in CL1 or CL2 (for PBMC isolation) biological safety cabinets. All cells were incubated in a 37 °C incubator with 5% CO2. Cell lines were regularly tested for mycoplasma contamination. For Western blot assay, the cells were seeded in six-well plates. For immunoprecipitation of LRRK2, SH-SY5Y cells (cultured in DMEM-F12, supplemented with 15% (v/v) FBS, 100 U/mL penicillin and 100 μg/mL streptomycin, 1× nonessential amino acids, and 1 mM sodium pyruvate) were seeded in a 10 cm dish. All cells were treated with the indicated compounds such that the final concentration of DMSO was 0.1%. Following the treatment of cells with compounds at indicated concentrations and time periods, the media was removed and the cells were washed with PBS and lysed in a 100 μL ice-cold complete lysis buffer containing 50 mM tris–HCl pH 7.4, 1 mM EGTA, 10 mM 2-glycerophosphate, 50 mM sodium fluoride, 5 mM sodium pyrophosphate, 270 mM sucrose, supplemented with 1 μg/mL microcystin-LR, 1 mM sodium orthovanadate, complete EDTA-free protease inhibitor cocktail (Roche), and 1% (v/v) Triton X-100. The cells were immediately placed on ice and were scraped and collected into 1.5 mL Eppendorf tubes. Cell lysates were incubated on ice for 10 min prior to centrifugation at 15 000g at 4 °C for 15 min.

[2] = system: LRRK2; assay: Western blot screening of PROTACs in WT and G2019S LRRK2 MEFs; type: cell-based, mouse
Experimental: as §1, §2
Culturing and passaging of adherent cell lines were carried out using an aseptic technique in CL1 or CL2 (for PBMC isolation) biological safety cabinets. All cells were incubated in a 37 °C incubator with 5% CO2. Cell lines were regularly tested for mycoplasma contamination. For Western blot assay, the cells were seeded in six-well plates.

[3] = target: T1, G2019S LRRK2 (Mus musculus, UniProt Q5S006, G2019S); assay: LRRK2 degradation in G2019S LRRK2 MEFs by Western blotting; type: cell-based
T1 construct: endogenous in cells; host or cells: G2019S LRRK2 MEFs
T1 sequence (Q5S006 whole entry G2019S): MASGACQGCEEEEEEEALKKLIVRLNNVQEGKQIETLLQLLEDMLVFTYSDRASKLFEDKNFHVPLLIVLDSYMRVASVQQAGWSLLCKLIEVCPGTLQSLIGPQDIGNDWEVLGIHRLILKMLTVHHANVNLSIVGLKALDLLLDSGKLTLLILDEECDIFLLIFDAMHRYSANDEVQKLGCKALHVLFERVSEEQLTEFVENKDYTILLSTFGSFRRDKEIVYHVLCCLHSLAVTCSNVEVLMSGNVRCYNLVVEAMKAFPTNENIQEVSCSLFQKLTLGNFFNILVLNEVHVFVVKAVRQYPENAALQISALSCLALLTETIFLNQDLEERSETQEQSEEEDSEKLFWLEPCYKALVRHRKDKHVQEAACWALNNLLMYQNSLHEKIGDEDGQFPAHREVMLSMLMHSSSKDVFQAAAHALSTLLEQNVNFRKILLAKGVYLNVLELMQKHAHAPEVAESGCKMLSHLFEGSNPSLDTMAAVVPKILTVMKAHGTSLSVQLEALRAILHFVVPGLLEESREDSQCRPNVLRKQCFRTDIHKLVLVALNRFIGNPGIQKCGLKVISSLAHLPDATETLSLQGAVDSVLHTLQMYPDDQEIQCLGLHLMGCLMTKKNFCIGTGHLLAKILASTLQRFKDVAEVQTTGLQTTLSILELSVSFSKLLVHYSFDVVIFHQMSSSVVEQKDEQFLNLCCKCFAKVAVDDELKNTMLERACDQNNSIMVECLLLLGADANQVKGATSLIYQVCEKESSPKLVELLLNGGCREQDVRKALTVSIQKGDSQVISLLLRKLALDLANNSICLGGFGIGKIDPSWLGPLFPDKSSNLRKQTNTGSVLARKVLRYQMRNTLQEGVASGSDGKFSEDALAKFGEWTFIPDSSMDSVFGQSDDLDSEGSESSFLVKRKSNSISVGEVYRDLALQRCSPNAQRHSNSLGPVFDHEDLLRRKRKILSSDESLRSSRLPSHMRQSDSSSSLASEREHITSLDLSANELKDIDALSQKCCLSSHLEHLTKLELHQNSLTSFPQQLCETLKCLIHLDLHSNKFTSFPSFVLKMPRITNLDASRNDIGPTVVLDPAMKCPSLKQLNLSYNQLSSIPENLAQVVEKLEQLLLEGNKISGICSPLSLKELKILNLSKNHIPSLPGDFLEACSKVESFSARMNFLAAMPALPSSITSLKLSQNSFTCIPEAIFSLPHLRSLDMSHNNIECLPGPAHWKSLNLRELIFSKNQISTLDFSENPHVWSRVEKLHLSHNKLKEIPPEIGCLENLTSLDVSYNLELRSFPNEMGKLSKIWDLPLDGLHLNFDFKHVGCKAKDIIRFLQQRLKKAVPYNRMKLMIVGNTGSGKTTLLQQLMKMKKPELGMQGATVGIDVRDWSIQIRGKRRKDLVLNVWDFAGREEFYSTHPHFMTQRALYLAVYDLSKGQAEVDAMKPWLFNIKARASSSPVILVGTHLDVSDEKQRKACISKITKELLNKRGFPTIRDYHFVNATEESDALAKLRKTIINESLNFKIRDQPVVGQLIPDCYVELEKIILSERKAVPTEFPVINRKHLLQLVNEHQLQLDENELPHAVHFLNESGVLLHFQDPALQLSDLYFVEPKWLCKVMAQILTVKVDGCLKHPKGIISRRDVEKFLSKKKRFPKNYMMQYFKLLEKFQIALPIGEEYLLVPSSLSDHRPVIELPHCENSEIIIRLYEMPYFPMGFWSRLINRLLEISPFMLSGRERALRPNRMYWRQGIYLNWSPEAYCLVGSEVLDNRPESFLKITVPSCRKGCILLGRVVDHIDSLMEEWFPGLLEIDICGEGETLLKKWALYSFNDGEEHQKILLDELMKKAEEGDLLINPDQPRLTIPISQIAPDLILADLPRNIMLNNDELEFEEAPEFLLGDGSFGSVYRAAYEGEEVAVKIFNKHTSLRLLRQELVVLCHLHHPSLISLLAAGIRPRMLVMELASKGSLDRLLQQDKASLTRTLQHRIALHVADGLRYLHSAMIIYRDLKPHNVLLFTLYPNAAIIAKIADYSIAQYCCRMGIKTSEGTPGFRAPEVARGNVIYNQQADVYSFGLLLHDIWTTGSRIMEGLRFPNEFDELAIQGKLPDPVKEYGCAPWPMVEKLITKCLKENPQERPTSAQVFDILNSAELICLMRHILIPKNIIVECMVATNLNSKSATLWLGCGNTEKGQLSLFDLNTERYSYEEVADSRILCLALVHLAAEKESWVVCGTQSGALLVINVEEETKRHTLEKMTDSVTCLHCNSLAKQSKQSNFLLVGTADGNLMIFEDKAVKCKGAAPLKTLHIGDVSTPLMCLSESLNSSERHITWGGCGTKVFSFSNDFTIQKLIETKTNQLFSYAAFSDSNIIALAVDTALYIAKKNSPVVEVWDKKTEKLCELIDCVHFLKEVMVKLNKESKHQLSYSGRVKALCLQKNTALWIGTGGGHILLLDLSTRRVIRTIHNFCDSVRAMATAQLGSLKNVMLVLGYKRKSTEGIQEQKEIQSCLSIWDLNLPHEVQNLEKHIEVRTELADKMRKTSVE
Experimental: as §1, §2, §3

[4] = system: Rab10-pThr73; assay: Rab10 dephosphorylation in WT MEFs by Western blotting; type: cell-based, mouse; details: Mus musculus; 4 h, WT MEFs; read-out: EC50 WT-pRab10
Experimental: as §1, §2, §3

[5] = target: T2, WT LRRK2 (Mus musculus, UniProt Q5S006); assay: LRRK2 degradation in WT MEFs by Western blotting; type: cell-based; details: 4 h
T2 construct: endogenous in cells; host or cells: wild-type primary MEFs
T2 sequence (Q5S006 whole entry): as the sequence (Q5S006 whole entry G2019S) above, with S2019G counted along it
Experimental: as §1, §2, §3

Question: For CNc1nc(Nc2ccc(C(=O)N3CCN(Cc4ccc(CSC(C)(C)C(NC(=O)C5(F)CC5)C(=O)N5CC(O)CC5C(=O)NCc5ccc(-c6scnc6C)cc5)cc4)CC3)cc2OC)ncc1Cl (stereo not drawn) [SD100], which pRab10 dephosphorylated ([1]; 1 µM) is on record?
Answer: Its pRab10 dephosphorylated is 75–90%.

Question: And the “degradation of LRRK2” value ([2]; 0.033 µM)?
Answer: The value was < 40%.

Question: What about the “degradation of LRRK2 (in words)” value ([2]; 33 nM/4 h, WT and G2019S LRRK2 MEFs) of the same compound?
Answer: The value was “little to no degradation”.

Question: Which results are given for CNc1nc(Nc2ccc(C(=O)N3CCN(CCCOc4cc(-c5scnc5C)ccc4CNC(=O)[C@@H]4C[C@@H](O)CN4C(=O)[C@@H](NC(=O)C4(F)CC4)C(C)(C)C)CC3)cc2OC)ncc1Cl [SD13]?
Answer: G2019S LRRK2 degraded ([3]; 33 nM/4 h): 60%; G2019S LRRK2 degraded ([3]; 33 nM/24 h): 68%

Question: With CNc1nc(Nc2ccc(C(=O)N3CCOCC3)cc2OC)ncc1Cl [HG-10-102-01, reference compound] as the compound, how does the EC50 [4] read?
Answer: The EC50 was 214 nM.

Question: And the “degradation of WT LRRK2 (in words)” value [5]?
Answer: The value was “did not degrade LRRK2”.

Question: And the “degradation of G2019S LRRK2 (in words)” value ([3]; 4 h)?
Answer: Its value is “did not degrade LRRK2”.

Question: What about the EC50 ([1]; Mus musculus, 4 h, G2019S LRRK2 MEFs, read-out: EC50 G2019S pRab10) of the same compound?
Answer: The EC50 was 110 nM.
